This note sets out measurements from US10597380B2, “Pyridazinone-based broad spectrum anti-influenza inhibitors” (Hoffmann-La Roche Inc., priority 2017, dated 2020).

In this test the test system is Influenza A/WSN/33-Luciferase virus. In words: microbe, parasite or virus in culture. To be noted: A549, 72 h, luciferase signal three days later, read-out: IC50 antiviral activity (Luciferase reporter assay). In kind it is cell-based. Background: A reporter such as luciferase makes a cellular process visible.

The IC50 is the concentration that inhibits the measured activity by half. For the molecule `CN(C)CCn1cccc(Nc2nn(-c3ccc(OC(F)(F)F)cc3)c(=O)c3ccccc23)c1=O` [Example 70, 4-[[1-[2-(dimethylamino)ethyl]-2-oxo-3-pyridyl]amino]-2-[4-(trifluoromethoxy)phenyl]phthalazin-1-one], the IC50 came to 19 nM.
`COCCn1cccc(Nc2nn(-c3ccc(OC(F)(F)F)cc3)c(=O)c3ccccc23)c1=O` [Example 71, 4-[[1-(2-methoxyethyl)-2-oxo-3-pyridyl]amino]-2-[4-(trifluoromethoxy)phenyl]phthalazin-1-one]: the IC50 worked out at 54 nM.
As for `CS(=O)(=O)CCn1cccc(Nc2nn(-c3ccc(OC(F)(F)F)cc3)c(=O)c3ccccc23)c1=O` [Example 72, 4-[[1-(2-methylsulfonylethyl)-2-oxo-3-pyridyl]amino]-2-[4-(trifluoromethoxy)phenyl]phthalazin-1-one], the IC50 was 24 nM.
With `COC(=O)CCCn1cccc(Nc2nn(-c3ccc(OC(F)(F)F)cc3)c(=O)c3ccccc23)c1=O` [Example 73, methyl 4-[2-oxo-3-[[4-oxo-3-[4-(trifluoromethoxy)phenyl]phthalazin-1-yl]amino]-1-pyridyl]butanoate], the IC50 came to 49 nM.
The same measure for `NS(=O)(=O)CCCn1cccc(Nc2nn(-c3ccc(OC(F)(F)F)cc3)c(=O)c3ccccc23)c1=O` [Example 74, 3-[2-oxo-3-[[4-oxo-3-[4-(trifluoromethoxy)phenyl]phthalazin-1-yl]amino]-1-pyridyl]propane-1-sulfonamide]: 34 nM; for `CN(C)S(=O)(=O)CCCn1cccc(Nc2nn(-c3ccc(OC(F)(F)F)cc3)c(=O)c3ccccc23)c1=O` [Example 75, N,N-dimethyl-3-[2-oxo-3-[[4-oxo-3-[4-(trifluoromethoxy)phenyl]phthalazin-1-yl]amino]-1-pyridyl]propane-1-sulfonamide]: 25 nM.
Consider `O=c1c(Nc2nn(-c3ccc(OC(F)(F)F)cc3)c(=O)c3ccccc23)cccn1CCN1CCOCC1` [Example 76, 4-[[1-(2-morpholinoethyl)-2-oxo-3-pyridyl]amino]-2-[4-(trifluoromethoxy)phenyl]phthalazin-1-one], for which the IC50 was 34 nM.
In the case of `O=c1c(Nc2nn(-c3ccc(OC(F)(F)F)cc3)c(=O)c3ccccc23)cccn1CCN1CC(O)(C(F)(F)F)C1` [Example 77, 4-[[1-[2-[3-hydroxy-3-(trifluoromethyl)azetidin-1-yl]ethyl]-2-oxo-3-pyridyl]amino]-2-[4-(trifluoromethoxy)phenyl]phthalazin-1-one], the concentration for half-maximal inhibition (IC50) is 108 nM.
For the molecule `O=c1c(Nc2nn(-c3ccc(OC(F)(F)F)cc3)c(=O)c3ccccc23)cccn1CCN1CCC(O)C1` (centres unmarked) [Example 78, 4-[[1-[2-(3-hydroxypyrrolidin-1-yl)ethyl]-2-oxo-3-pyridyl]amino]-2-[4-(trifluoromethoxy)phenyl]phthalazin-1-one], the IC50 came to 31 nM.
The same measure for `COC(=O)[C@@H]1CCCN1CCn1cccc(Nc2nn(-c3ccc(OC(F)(F)F)cc3)c(=O)c3ccccc23)c1=O` [Example 79, methyl (2S)-1-[2-[2-oxo-3-[[4-oxo-3-[4-(trifluoromethoxy)phenyl]phthalazin-1-yl]amino]-1-pyridyl]ethyl]pyrrolidine-2-carboxylate]: 32 nM; for `CN(C)CCn1cncc(Nc2nn(-c3ccc(OC(F)(F)F)cc3)c(=O)c3ccccc23)c1=O` [Example 80, 4-[[1-[2-(dimethylamino)ethyl]-6-oxo-pyrimidin-5-yl]amino]-2-[4-(trifluoromethoxy)phenyl]phthalazin-1-one]: 68 nM; for `CCc1ccc2c(=O)n(-c3ccc(OC(F)(F)F)cc3)nc(Nc3cccn(C)c3=O)c2c1` [Example 81, 6-ethyl-4-[(1-methyl-2-oxo-3-pyridyl)amino]-2-[4-(trifluoromethoxy)phenyl]phthalazin-1-one]: 465 nM.
In the case of `CCc1ccc2c(Nc3cccn(C)c3=O)nn(-c3ccc(OC(F)(F)F)cc3)c(=O)c2c1` [Example 82, 7-ethyl-4-[(1-methyl-2-oxo-3-pyridyl)amino]-2-[4-(trifluoromethoxy)phenyl]phthalazin-1-one], the IC50 amounted to 79 nM.
On to `C=Cc1ccc2c(=O)n(-c3ccc(OC(F)(F)F)cc3)nc(Nc3cccn(C)c3=O)c2c1` [Example 83, 4-[(1-methyl-2-oxo-3-pyridyl)amino]-2-[4-(trifluoromethoxy)phenyl]-6-vinyl-phthalazin-1-one], for which the IC50 was determined as 1490 nM.
`C=Cc1ccc2c(Nc3cccn(C)c3=O)nn(-c3ccc(OC(F)(F)F)cc3)c(=O)c2c1` [Example 84, 4-[(1-methyl-2-oxo-3-pyridyl)amino]-2-[4-(trifluoromethoxy)phenyl]-7-vinyl-phthalazin-1-one]: the concentration for half-maximal inhibition (IC50) was found to be 176 nM.
For the molecule `CCn1cncc(Nc2nn(-c3ccc(OC(F)(F)F)cc3)c(=O)c3c2CCN(C(C)=O)C3)c1=O` [Example 85, 6-acetyl-1-[(1-ethyl-6-oxo-pyrimidin-5-yl)amino]-3-[4-(trifluoromethoxy)phenyl]-7,8-dihydro-5H-pyrido[3,4-d]pyridazin-4-one], the IC50 stood at 56 nM.
To `CCCn1cncc(Nc2nn(-c3ccc(OC(F)(F)F)cc3)c(=O)c3c2CCN(C(C)=O)C3)c1=O` [Example 86, 6-acetyl-1-[(6-oxo-1-propyl-pyrimidin-5-yl)amino]-3-[4-(trifluoromethoxy)phenyl]-7,8-dihydro-5H-pyrido[3,4-d]pyridazin-4-one] belongs 34 nM; to `CC(=O)N1CCc2c(Nc3cc(F)cn(C)c3=O)nn(-c3ccc(OC(F)(F)F)cc3)c(=O)c2C1` [Example 87, 6-acetyl-1-[(5-fluoro-1-methyl-2-oxo-3-pyridyl)amino]-3-[4-(trifluoromethoxy)phenyl]-7,8-dihydro-5H-pyrido[3,4-d]pyridazin-4-one], 17 nM.
Take `O=C(Cn1cccc(Nc2nn(-c3ccc(OC(F)(F)F)cc3)c(=O)c3ccccc23)c1=O)N1CCOCC1` [Example 88, 4-[[1-(2-Morpholino-2-oxo-ethyl)-2-oxo-3-pyridyl]amino]-2-[4-(trifluoromethoxy)phenyl]phthalazin-1-one]: the IC50 was found to be 23 nM.
Take `CN(C)C(=O)Cn1cccc(Nc2nn(-c3ccc(OC(F)(F)F)cc3)c(=O)c3ccccc23)c1=O` [Example 89, N,N-dimethyl-2-[2-oxo-3-[[4-oxo-3-[4-(trifluoromethoxy)phenyl]phthalazin-1-yl]amino]-1-pyridyl]acetamide]: the 50% inhibitory concentration (IC50) was determined as 38 nM.
Consider `CC(C)NC(=O)Cn1cccc(Nc2nn(-c3ccc(OC(F)(F)F)cc3)c(=O)c3ccccc23)c1=O` [Example 90, N-isopropyl-2-[2-oxo-3-[[4-oxo-3-[4-(trifluoromethoxy)phenyl]phthalazin-1-yl]amino]-1-pyridyl]acetamide], for which the IC50 came to 162 nM.
As for `CNC(=O)Cn1cccc(Nc2nn(-c3ccc(OC(F)(F)F)cc3)c(=O)c3ccccc23)c1=O` [Example 91, N-methyl-2-[2-oxo-3-[[4-oxo-3-[4-(trifluoromethoxy)phenyl]phthalazin-1-yl]amino]-1-pyridyl]acetamide], the IC50 was 41 nM.
Turning to `O=C(Cn1cccc(Nc2nn(-c3ccc(OC(F)(F)F)cc3)c(=O)c3ccccc23)c1=O)NCCO` [Example 92, N-(2-hydroxyethyl)-2-[2-oxo-3-[[4-oxo-3-[4-(trifluoromethoxy)phenyl]phthalazin-1-yl]amino]-1-pyridyl]acetamide], the IC50 was 178 nM.
For `CN(C)CCNC(=O)Cn1cccc(Nc2nn(-c3ccc(OC(F)(F)F)cc3)c(=O)c3ccccc23)c1=O` [Example 93, N-[2-(dimethylamino)ethyl]-2-[2-oxo-3-[[4-oxo-3-[4-(trifluoromethoxy)phenyl]phthalazin-1-yl]amino]-1-pyridyl]acetamide], the IC50 was found to be 166 nM.
Consider `COCCCNC(=O)Cn1cccc(Nc2nn(-c3ccc(OC(F)(F)F)cc3)c(=O)c3ccccc23)c1=O` [Example 94, N-(3-methoxypropyl)-2-[2-oxo-3-[[4-oxo-3-[4-(trifluoromethoxy)phenyl]phthalazin-1-yl]amino]-1-pyridyl]acetamide], for which the 50% inhibitory concentration (IC50) was 45 nM.
Consider `CNC(=O)CCn1cccc(Nc2nn(-c3ccc(OC(F)(F)F)cc3)c(=O)c3ccccc23)c1=O` [Example 95, N-methyl-3-[2-oxo-3-[[4-oxo-3-[4-(trifluoromethoxy)phenyl]phthalazin-1-yl]amino]-1-pyridyl]propanamide], for which the IC50 amounted to 102 nM.
To `CN(C)C(=O)CCn1cccc(Nc2nn(-c3ccc(OC(F)(F)F)cc3)c(=O)c3ccccc23)c1=O` [Example 96, N,N-dimethyl-3-[2-oxo-3-[[4-oxo-3-[4-(trifluoromethoxy)phenyl]phthalazin-1-yl]amino]-1-pyridyl]propanamide] belongs 42 nM; to `CNC(=O)CCCn1cccc(Nc2nn(-c3ccc(OC(F)(F)F)cc3)c(=O)c3ccccc23)c1=O` [Example 97, N-methyl-4-[2-oxo-3-[[4-oxo-3-[4-(trifluoromethoxy)phenyl]phthalazin-1-yl]amino]-1-pyridyl]butanamide], 9 nM; to `CN(C)C(=O)CCCn1cccc(Nc2nn(-c3ccc(OC(F)(F)F)cc3)c(=O)c3ccccc23)c1=O` [Example 98, N,N-dimethyl-4-[2-oxo-3-[[4-oxo-3-[4-(trifluoromethoxy)phenyl]phthalazin-1-yl]amino]-1-pyridyl]butanamide], 10 nM.
To `CNC(=O)C(C)(C)Cn1cccc(Nc2nn(-c3ccc(OC(F)(F)F)cc3)c(=O)c3ccccc23)c1=O` [Example 99, N,2,2-trimethyl-3-[2-oxo-3-[[4-oxo-3-[4-(trifluoromethoxy)phenyl]phthalazin-1-yl]amino]-1-pyridyl]propanamide] belongs 291 nM; to `CN(C)C(=O)C(C)(C)Cn1cccc(Nc2nn(-c3ccc(OC(F)(F)F)cc3)c(=O)c3ccccc23)c1=O` [Example 100, N,N,2,2-tetramethyl-3-[2-oxo-3-[[4-oxo-3-[4-(trifluoromethoxy)phenyl]phthalazin-1-yl]amino]-1-pyridyl]propanamide], 36 nM; to `CC(C)(Cn1cccc(Nc2nn(-c3ccc(OC(F)(F)F)cc3)c(=O)c3ccccc23)c1=O)C(N)=O` [Example 101, 2,2-dimethyl-3-[2-oxo-3-[[4-oxo-3-[4-(trifluoromethoxy)phenyl]phthalazin-1-yl]amino]-1-pyridyl]propanamide], 109 nM.
